The results in this text go back to ChEMBL document CHEMBL1909046, “DrugMatrix in vitro pharmacology data”.

For orientation: IC50 means the concentration needed to halve the response being measured. What is called Ki is a measure of affinity in units of concentration, obtained from inhibition or displacement.

For assay [1], the target named is T1, Alpha-2C adrenergic receptor (Homo sapiens, UniProt P18825).
T1 sequence (P18825 whole entry): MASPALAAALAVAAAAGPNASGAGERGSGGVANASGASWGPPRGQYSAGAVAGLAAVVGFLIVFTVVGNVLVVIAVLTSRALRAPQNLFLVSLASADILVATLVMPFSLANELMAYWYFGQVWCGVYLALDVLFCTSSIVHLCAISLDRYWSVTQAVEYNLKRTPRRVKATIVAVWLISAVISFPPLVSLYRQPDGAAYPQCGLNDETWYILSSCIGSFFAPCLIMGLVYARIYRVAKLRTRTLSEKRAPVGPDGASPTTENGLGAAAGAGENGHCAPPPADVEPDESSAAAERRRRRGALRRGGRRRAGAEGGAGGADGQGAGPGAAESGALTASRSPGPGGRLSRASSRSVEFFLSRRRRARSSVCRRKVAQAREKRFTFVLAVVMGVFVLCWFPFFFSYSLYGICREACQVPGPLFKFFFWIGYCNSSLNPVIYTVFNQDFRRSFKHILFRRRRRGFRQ
Nature of the assay: DRUGMATRIX: Adrenergic Alpha-2C radioligand binding (ligand: [3H] MK-912). For IC50: call rule not given here. Type of assay: cell membranes, Sf9, Membrane.

Assay [2] deals with T2, Muscarinic acetylcholine receptor M5 (Homo sapiens, UniProt P08912).
T2 sequence (P08912 whole entry): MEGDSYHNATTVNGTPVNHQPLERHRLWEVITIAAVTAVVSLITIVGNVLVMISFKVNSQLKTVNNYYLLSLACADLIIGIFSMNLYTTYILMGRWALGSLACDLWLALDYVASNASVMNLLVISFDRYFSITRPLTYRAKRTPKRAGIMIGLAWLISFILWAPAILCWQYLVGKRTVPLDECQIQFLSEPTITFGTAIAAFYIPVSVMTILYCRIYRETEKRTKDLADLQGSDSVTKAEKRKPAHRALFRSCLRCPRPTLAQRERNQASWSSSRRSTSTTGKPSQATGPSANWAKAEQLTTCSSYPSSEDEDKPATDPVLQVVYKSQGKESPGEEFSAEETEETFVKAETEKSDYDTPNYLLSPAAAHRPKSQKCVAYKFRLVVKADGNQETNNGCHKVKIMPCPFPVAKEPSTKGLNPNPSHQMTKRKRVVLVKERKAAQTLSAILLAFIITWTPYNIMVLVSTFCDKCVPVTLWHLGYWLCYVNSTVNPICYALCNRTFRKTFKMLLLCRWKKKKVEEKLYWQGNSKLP
Type of assay: cell membranes, CHO-K1, Membrane. Conditions: for Ki: read-out: Ki.

The target in assay [3] is T3, Neuropeptide Y receptor type 1 (Homo sapiens, UniProt P25929). Note: in other assays of this panel Not Active means under 50% inhibition at 10 µM.
T3 sequence (P25929 whole entry): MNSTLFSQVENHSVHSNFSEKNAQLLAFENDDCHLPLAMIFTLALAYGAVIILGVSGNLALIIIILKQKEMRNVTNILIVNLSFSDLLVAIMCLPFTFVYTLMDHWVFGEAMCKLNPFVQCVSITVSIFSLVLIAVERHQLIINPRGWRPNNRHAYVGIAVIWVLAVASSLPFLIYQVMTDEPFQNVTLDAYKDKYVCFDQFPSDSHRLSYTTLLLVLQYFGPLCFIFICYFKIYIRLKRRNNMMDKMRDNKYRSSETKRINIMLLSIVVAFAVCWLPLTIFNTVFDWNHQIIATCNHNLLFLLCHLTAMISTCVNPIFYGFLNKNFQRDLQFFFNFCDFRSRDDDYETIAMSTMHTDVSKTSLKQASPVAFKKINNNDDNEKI
Type of assay: cell membranes, Membrane. Conditions: sk-n-mc.

Assay [4] concerns the target Matrix metalloproteinase-9 (Homo sapiens, UniProt P14780). The assay can be described thus: biochemical. Type of assay: cell-based.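 Note: inhibition of isolated MMP-9 enzyme activity toward a synthetic peptide substrate, from the DrugMatrix protease screening panel; in other assays of this panel Not Active means under 50% inhibition at 10 µM.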
The target in assay [5] is Protein phosphatase 3 catalytic subunit alpha (Homo sapiens, UniProt Q08209). More on the design: species or system Escherichia coli.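 Note: inhibition of calcineurin (PP2B) enzyme activity, measured with DiFMUP as the substrate; in other assays of this panel Not Active means under 50% inhibition at 10 µM.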
For assay [6], the target named is T4, 5-hydroxytryptamine receptor 1A (Rattus norvegicus, UniProt P19327). Note: in other assays of this panel Not Active means under 50% inhibition at 10 µM.
T4 sequence (P19327 whole entry): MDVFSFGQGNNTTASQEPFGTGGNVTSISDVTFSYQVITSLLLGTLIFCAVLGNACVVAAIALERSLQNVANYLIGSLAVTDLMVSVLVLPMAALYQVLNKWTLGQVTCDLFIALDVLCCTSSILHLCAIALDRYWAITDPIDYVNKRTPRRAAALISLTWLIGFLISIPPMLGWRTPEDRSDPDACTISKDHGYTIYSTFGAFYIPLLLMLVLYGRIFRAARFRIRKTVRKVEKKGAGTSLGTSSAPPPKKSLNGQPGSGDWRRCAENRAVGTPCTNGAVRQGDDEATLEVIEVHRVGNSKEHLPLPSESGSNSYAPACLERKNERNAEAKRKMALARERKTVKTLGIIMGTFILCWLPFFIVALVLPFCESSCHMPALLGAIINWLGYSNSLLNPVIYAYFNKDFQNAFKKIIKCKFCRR
Type of assay: cell membranes, CHO-K1, Membrane. Conditions: for Ki: read-out: Ki.

Chain of Matrix metalloproteinase-9 (P14780 whole entry): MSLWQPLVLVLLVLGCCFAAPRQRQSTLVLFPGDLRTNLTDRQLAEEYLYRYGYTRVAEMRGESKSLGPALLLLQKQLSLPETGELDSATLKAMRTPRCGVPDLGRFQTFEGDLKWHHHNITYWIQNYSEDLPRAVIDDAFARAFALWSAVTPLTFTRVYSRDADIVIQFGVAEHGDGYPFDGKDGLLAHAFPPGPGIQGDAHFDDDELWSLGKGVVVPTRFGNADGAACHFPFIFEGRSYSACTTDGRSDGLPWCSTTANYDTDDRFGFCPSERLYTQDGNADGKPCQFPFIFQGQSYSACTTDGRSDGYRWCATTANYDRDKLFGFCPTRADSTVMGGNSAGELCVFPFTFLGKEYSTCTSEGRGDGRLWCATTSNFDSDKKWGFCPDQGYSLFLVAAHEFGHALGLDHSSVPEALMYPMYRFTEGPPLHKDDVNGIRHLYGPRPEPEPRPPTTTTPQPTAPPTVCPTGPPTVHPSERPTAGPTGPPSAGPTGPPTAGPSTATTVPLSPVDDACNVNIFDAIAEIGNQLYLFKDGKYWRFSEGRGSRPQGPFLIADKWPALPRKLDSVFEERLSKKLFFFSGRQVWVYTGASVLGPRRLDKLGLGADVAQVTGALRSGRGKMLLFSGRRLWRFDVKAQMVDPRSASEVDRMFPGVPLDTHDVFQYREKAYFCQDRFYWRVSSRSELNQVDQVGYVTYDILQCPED

As for `Cc1cc2c(OCC(CNC(C)(C)C)OC(=O)c3ccccc3)cccc2[nH]1` (stereo not given) [BOPINDOLOL], the IC50 entry in assay [1] (sf9) was “Not Active”; in assay [2] (cho-k1), “Not Active”; in assay [3], “Not Active”; in assay [4], “Not Active”; in assay [5], “Not Active”; in assay [6] (read-out: IC50) it was 267 nM. Further, in assay [6], the inhibition constant (Ki) amounted to 153 nM.

Consider `Brc1c(NC2=NCCN2)ccc2nccnc12` [BRIMONIDINE], for which the half-inhibitory concentration (IC50) entry is “Not Active” in assay [1] (sf9); “Not Active” in assay [2] (cho-k1); “Not Active” in assay [3]; “Not Active” in assay [4]; “Not Active” in assay [5]; 2550 nM in assay [6] (read-out: IC50). In assay [6], the Ki amounted to 1460 nM.

On to `CN(C)[C@@H]1C(O)=C(C(N)=O)C(=O)[C@@]2(O)C(O)=C3C(=O)c4c(O)ccc(Cl)c4[C@@](C)(O)[C@H]3C[C@@H]12` [CHLORTETRACYCLINE], for which the concentration for half-maximal inhibition (IC50) result in assay [1] (sf9), in assay [2] (cho-k1), in assay [3], in assay [4], in assay [5] and in assay [6] (cho-k1) was “Not Active” each time.

As to `CN/C(=N\CCSCc1nc[nH]c1C)NC#N` [CIMETIDINE], the IC50 entry in assay [1] (sf9), in assay [2] (cho-k1), in assay [3], in assay [4], in assay [5] and in assay [6] (cho-k1) was “Not Active” in each case.

Take `CCC(=O)O[C@]1(C(=O)CCl)[C@@H](C)C[C@H]2[C@@H]3CCC4=CC(=O)C=C[C@]4(C)[C@@]3(F)[C@@H](O)C[C@@]21C` [CLOBETASOL PROPIONATE]: the IC50 entry in assay [1] (sf9), in assay [2] (cho-k1), in assay [3], in assay [4], in assay [5] and in assay [6] (cho-k1) was “Not Active” each time.

In the case of `O=C1CN=C(c2ccccc2Cl)c2cc([N+](=O)[O-])ccc2N1` [CLONAZEPAM], the concentration for half-maximal inhibition (IC50) result in assay [1] (sf9), in assay [2] (cho-k1), in assay [3], in assay [4], in assay [5] and in assay [6] (cho-k1) was “Not Active” each time.

As to `Nc1ccn([C@@H]2O[C@H](CO)[C@@H](O)[C@@H]2O)c(=O)n1` [CYTARABINE], the 50% inhibitory concentration (IC50) result in assay [1] (sf9), in assay [2] (cho-k1), in assay [3], in assay [4], in assay [5] and in assay [6] (cho-k1) was “Not Active” each time.

With `C[C@@H]1C[C@H]2[C@@H]3CCC4=CC(=O)C=C[C@]4(C)[C@@]3(F)[C@@H](O)C[C@]2(C)[C@H]1C(=O)CO` [DESOXIMETASONE], the IC50 entry in assay [1] (sf9), in assay [2] (cho-k1), in assay [3], in assay [4], in assay [5] and in assay [6] (cho-k1) was “Not Active” each time.

As to `C[C@@H]1C[C@H]2[C@@H]3CCC4=CC(=O)C=C[C@]4(C)[C@@]3(F)[C@@H](O)C[C@]2(C)[C@@]1(O)C(=O)CO` [DEXAMETHASONE], the half-maximal inhibitory concentration (IC50) entry in assay [1] (sf9), in assay [2] (cho-k1), in assay [3], in assay [4], in assay [5] and in assay [6] (cho-k1) was “Not Active” in each case.

In the case of `CN(C)CC[C@@H](c1ccc(Cl)cc1)c1ccccn1` [DEXCHLORPHENIRAMINE], the IC50 entry was “Not Active” in assay [1] (sf9); 1040 nM in assay [2] (read-out: IC50); “Not Active” in assay [3]; “Not Active” in assay [4]; “Not Active” in assay [5]; “Not Active” in assay [6] (cho-k1). In assay [2], the Ki turned out to be 749 nM.

Regarding `C[C@@H]1CC[C@@]2(OC1)O[C@H]1[C@@H](O)[C@H]3[C@@H]4CC[C@H]5C[C@@H](O[C@@H]6O[C@H](CO)[C@H](O[C@@H]7O[C@H](CO)C(O)[C@H](O[C@@H]8OC[C@@H](O)[C@H](O)[C@H]8O)[C@H]7O[C@@H]7O[C@H](CO)[C@H](O)[C@H](O[C@@H]8O[C@H](CO)[C@@H](O)[C@H](O)[C@H]8O)[C@H]7O)[C@H](O)[C@H]6O)[C@H](O)C[C@]5(C)[C@H]4CC[C@]3(C)[C@H]1[C@@H]2C` (stereo not given in full) [DIGITONIN], the IC50 entry in assay [1] (sf9), in assay [2] (cho-k1), in assay [3], in assay [4], in assay [5] and in assay [6] (cho-k1) was “Not Active” each time.

Regarding `OC(CCCN1CCCCC1)(c1ccccc1)c1ccccc1` [DIPHENIDOL], the IC50 result was “Not Active” in assay [1] (sf9); 1190 nM in assay [2] (read-out: IC50); “Not Active” in assay [3]; “Not Active” in assay [4]; “Not Active” in assay [5]; “Not Active” in assay [6] (cho-k1). Also, the Ki in assay [2] stood at 855 nM.

As for `C[C@H]1O[C@@H](n2cc(F)c(=O)[nH]c2=O)[C@H](O)[C@@H]1O` [DOXIFLURIDINE], the IC50 entry in assay [1] (sf9), in assay [2] (cho-k1), in assay [3], in assay [4], in assay [5] and in assay [6] (cho-k1) was “Not Active” each time.

Consider `Cn1c(=O)c2c(ncn2CC(O)CO)n(C)c1=O` (stereo not given) [DYPHYLLINE], for which the concentration for half-maximal inhibition (IC50) entry in assay [1] (sf9), in assay [2] (cho-k1), in assay [3], in assay [4], in assay [5] and in assay [6] (cho-k1) was “Not Active” throughout.

With `CC[C@H]1CN2CCc3cc(OC)c(OC)cc3[C@@H]2C[C@@H]1C[C@H]1NCCc2cc(OC)c(OC)cc21` [EMETINE], the 50% inhibitory concentration (IC50) is 182 nM in assay [1] (read-out: IC50); “Not Active” in assay [2] (cho-k1); “Not Active” in assay [3]; “Not Active” in assay [4]; “Not Active” in assay [5]; “Not Active” in assay [6] (cho-k1). Also, in assay [1] (read-out: Ki), the inhibition constant Ki is 26 nM.

For `C[C@@H](CO)NC(=O)[C@@H]1C=C2c3cccc4[nH]cc(c34)C[C@H]2N(C)C1` [ERGONOVINE], the IC50 result in assay [1] (sf9) is “Not Active”; in assay [2] (cho-k1), “Not Active”; in assay [3], “Not Active”; in assay [4], “Not Active”; in assay [5], “Not Active”; in assay [6] (read-out: IC50), 8.13 nM. In addition, the inhibition constant (Ki) in assay [6] turned out to be 4.64 nM.

For the compound `COC(=O)CCc1ccc(OCC(O)CNC(C)C)cc1` (stereo not given) [ESMOLOL], the concentration for half-maximal inhibition (IC50) result in assay [1] (sf9), in assay [2] (cho-k1), in assay [3], in assay [4], in assay [5] and in assay [6] (cho-k1) was “Not Active” in each case.

Regarding `CCC1(C)CC(=O)NC1=O` (stereo not given) [ETHOSUXIMIDE], the IC50 result in assay [1] (sf9), in assay [2] (cho-k1), in assay [3], in assay [4], in assay [5] and in assay [6] (cho-k1) was “Not Active” in each case.

Take `C#C[C@]1(OC(C)=O)CC[C@H]2[C@@H]3CCC4=C[C@@H](OC(C)=O)CC[C@@H]4[C@H]3CC[C@@]21C` [ETHYNODIOL DIACETATE]: the IC50 result in assay [1] (sf9), in assay [2] (cho-k1), in assay [3], in assay [4], in assay [5] and in assay [6] (cho-k1) was “Not Active” each time.
